What was measured:
Assay type in all cases: cell-based
[1] = test system: Influenza A USSR/90(H1 N1); assay: Anti-Influenza Activity (Hemadsorption Assay), Influenza A USSR/90
Description: Upon infection of a monolayer of tissue culture cells by influenza virus, the cell surface is altered so that guinea pig erythrocytes can be adsorbed to the cell surface. The number of foci of adsorbed cells (hemadsorption foci forming units HAFFU) is a quantitative measure of infectivity. The method is as follows.
The monolayers were subcultured in the following manner: The medium was poured off, and the monolayer washed two times with approximately 50 ml per wash of calcium and magnesium free phosphate buffered saline (PBS), (GIBCO #419) at a pH of 7.2. One ml of trypsin-EDTA solution (GIBCO #530L) containing 0.5 g trypsin (1:250) and 2.0 g EDTA/liter of Modified Puck's Saline A was added at 37° C. to each flask and dispersed over the monolayer with gentle shaking. The flasks were then placed in an incubator at 37° C. for approximately 3-5 minutes depending on the time required to dislodge the cells. Occasional shaking was required. Ten ml of planting medium was added to each flask and the cells dispersed by aspirating and expelling the suspension from the pipette. The contents of a series of flasks were pooled and the cells in the suspension were diluted with planting medium to 7-8.5×10^4 cells/ml. The planting medium consisted of the following composition: Minimum Essential Medium Eagles (MEM) with Earle's salts and HEPES buffer (GIBCO #236) supplemented by adding the following substances as specified to 87 ml of MEM:
The following day the medium was removed and replaced with fresh planting medium. The monolayers were used for experimentation when they reached a condition in which they were almost confluent (approximately 3-4 days).
When the Linbro tray HeLa cell cultures were ready for experimentation (see cells), the medium was decanted and 1 ml of maintenance medium (MEM with FCS reduced to 3%) containing the compound being tested at a given concentration was added to 4 replicate cultures within a tray.
A series of different drug concentrations ranging from 2.3 to 150 μg/ml were used. Maintenance medium alone was used for control cultures. After the administration of drug and control medium, 0.1 ml of the diluted viral suspension was added to experimental groups and infected control cultures. Saline alone was added to non-infected control cultures. The Linbro trays were then incubated at 37° C. for 18 hours, after which media in all groups was aspirated. Each culture was washed once with PBS. The saline was aspirated and 0.5 ml of a 0.4% v/v guinea pig red blood cell suspension in PBS was added to each culture well. The cultures remained at room temperature for 30 minutes after which the medium was decanted and culture washed […] with PBS to remove all but the specifically bound red cells. After the third wash, maintenance medium was added to all cultures.
A Howard Micrometer eyepiece (C8385) was inserted within the ocular of a Nikon inverted phase contrast microscope. Each culture was scanned with a 4× low paper objective and direct counts of hemadsorbed red cells were counted using the eyepiece grid as a field marker. Partial or complete fields were counted per experimental group depending on the resulting number and density of hemadsorbed cells in the infected control cultures. Magnification of 60× or 150× were chosen to obtain the best conditions for enumerating the hemadsorbed cells. Field factors were calculated for counting hemadsorption at 60× and 150×. At 60× magnification, total field count was calculated using a multiplication factor of 55.5. At 150× magnification the multiplication factor was 273. The multiplication factors of 55.5 and 273 represent the total number of fields at 60× and 150× magnifications, respectively. The number of fields counted ranged from 3 to 5 per well with 3 to 4 wells per treatment group employed (see raw data tables in results section for number of fields examined). Means and standard errors were calculated and the data was evaluated using student's t-test analysis.

[2] = test system: guinea pig peritoneal macrophages; assay: Lymphokine Induced (MMF) Guinea Pig Macrophage Proliferation
Description: (§1) The following three assay procedures are used to evaluate the ability of the test substances to modulate the activity of several classes of cells in the immune system. In these systems it is possible to identify both immunopotentiating activity (evidence by an enhancement of the parameter examined) as well as immunosuppressant activity (evidenced by an inhibition of the parameter examined).
3. The macrophage represents a subpopulation of white blood cells which is an important component of the immune system in control of both cellular and humoral immunity. The assay system described below evaluates the substances studied as potentiators of macrophage function.
Phytohemagglutinin(PHA) (HA-17) was purchased from Burroughs Wellcome. A preparation containing Macrophage Mitogen Factor (MMF) and Macrophage Activating Factor (MAF) was prepared from antigen-stimulated immune lymph node lymphocytes (guinea pig) as previously described by Hadden et al, Nature 257, 483-485 (1975). […] The active fraction was employed in both the proliferation and activation assays.
Ficoll-hypaque purified human peripheral blood lymphocytes were prepared and PHA-induced lymphocyte proliferation was assayed by the incorporation of tritiated thymidine as described in Hadden et al, Cell. Immunol. 20, 98-103 (1975). Each compound was analyzed in the presence of suboptimal, optimal and supraoptimal concentrations of PHA (0.001, 0.01, 0.1 units/ml respectively). Paraffin oil-induced guinea pig peritoneal macrophages were prepared and incubated as monolayer culture (>98% pure macrophages). Lymphokine (MMF)-induced proliferation was assayed by the incorporation of triturated thymidine at 3 and 5 days of culture as described, Hadden et al, Nature 257, 483-485 (1975). Lymphokine (MAF)-induced macrophage activation to kill Listeria monocytogenes following 5 days of culture in the presence or absence of MAF was performed during a 6 hour period as described in Hadden and England, Immunopharmacology, pages 87-100 (Plenum Press, 1977). Phagocytosis was quantitated during a 20-minute exposure to Listeria monocytogenes by counting the number of macrophages containing bacteria and the number of bacteria per phagocytic cell on gram stained monolayers in Labtek chambers. Intracellular killing of bacteria was evaluated by counting the number of cells containing bacteria and the number of bacteria/cell 6 hours after the initial 20 minute exposure. Parallel experiments in which macrophages were lysed and intracellular bacteria were cultured confirm the validity of bacterial activity determined by this manner in this sytem. The drugs were employed in each of the three systems over serial log concentration range in triplicate in the presence and absence of mitogen or lymphokine. Each type of experiment was performed at least three times. Previous experiments indicate a parallelism of response to pharmacologic modulation in the proliferation and activation assays.

Mouse spleen cells = assay: Mitogen Induced (Con A) Mouse Lymphocyte Proliferation
Description: as §1
1. Mitogen--Induced Mouse Spleen Cell Assay--Mouse spleen cells contain a population of both B and T lymphocytes which can be stimulated by a number of foreign substances (e.g., plant mitogens such as Con A) to proliferate. This enhanced proliferation is an indication of enhanced cell mediated immunity. The method below describes the system used to evaluate test substances as immunopotentiators.
Concanavalin A (Calbiochem, La Jolla, Calif.), Lot #210073, lyophilized in NaCl, was prepared first as a 1% solution and diluted as a 2× concentration for each dilution (0.5, 1.0, 2.5 μg/ml).
Six to eight week old male Balb/c and C3 H inbred mice were obtained from the following sources: Flow Research Animals, Inc., Dublin, Va.; Charles River Breeding Laboratories, Wilmington, Mass.; Laboratory Supply Company, Indianapolis, Ind.; and Lionel Strong Foundation, San Diego, Calif.
Three to five mice were sacrificed by cervical dislocation and the spleens aseptically removed. Pooled spleens were minced and teased with sterile forceps; then strained through a double layer of nylon mesh. The cell suspension was washed once with 15 ml of RPMI 1640 supplemented with 5% fetal calf serum and antibiotics. Cells were cultured at a concentration of 10^6 cells/0.1 ml/well in micro-plates. Cultures were incubated in the presence or absence of mitogen in a humidified atmosphere containing 5% CO2 for 48 hours. The test compound was added to cultures at various concentrations concommitant with mitogen.
Proliferation was assayed by the degree of incorporation of 1.0 μCi of [^3 H] thymidine over an 18 hour incubation period. Cultures were harvested by a MASH unit (Otto Hiller Co., Madison, Wisconsin) and thymidine incorporation was assayed by liquid scintillation spectrometry. Cultures were performed in triplicate and data are expressed as means plus or minus the strandard error of the experimental means. Drug stimulation indices over control values were also calculated and portrayed graphically.

[3] = test system: human peripheral blood lymphocytes; assay: Mitogen Induced (PHA) Human Lymphocyte Proliferation
influenza virus = assay: Anti-influenza activity (summary)

Structure (SMILES) | Maximum Percent Change, Mitogen Induced (Con A) Mouse Lymph. Prolif. (Mouse spleen cells; 1.0-10) | Maximum Percent Change, Mitogen Induced (Con A) Mouse Lymph. Prolif. (Mouse spleen cells; .01-1.0) | Maximum Percent Change, Mitogen Induced (PHA) Human Lymph. Prolif. ([3]; 1.0-10) | Maximum Percent Change, Mitogen Induced (PHA) Human Lymph. Prolif. ([3]; 10-100) | Maximum Percent Change, Mitogen Induced (PHA) Human Lymph. Prolif. ([3]; .01-1.0) | DIP.PAcBA potentiation of Anti-Influenza activity (influenza virus) | % Inhibition of Hemadsorption Foci ([1]; Conc. 10-100 μg/ml) | also measured
CC(O)Cn1cnc2c(=O)[nH]cnc21 (stereo not drawn) [NPT 15446, 9-(2-HYDROXY-1-PROPYL)HYDROXANTHINE] | 12% | 6% | 0% | 0% | 0% |  |  | % Inhibition of Hemadsorption Foci ([1]; Conc. 10-100 μg/ml, listed as 15446): 0%; % Inhibition of Hemadsorption Foci ([1]; Conc. <10 μg/ml, listed as 15446): 2%; % Inhibition of Hemadsorption Foci ([1]; Conc. >100 μg/ml, listed as 15446): 0%; Maximum Percent Change, Lymphokine Induced (MMF) Guinea Pig Mac. Prolif. ([2]; 1.0-10): 0%; Maximum Percent Change, Lymphokine Induced (MMF) Guinea Pig Mac. Prolif. ([2]; 10-100): 0%; Maximum Percent Change, Lymphokine Induced (MMF) Guinea Pig Mac. Prolif. ([2]; .01-1.0): 0%; Maximum Percent Change, Mitogen Induced (Con A) Mouse Lymph. Prolif. (Mouse spleen cells; 10-100): 0%
CC(CO)n1cnc2c(=O)[nH]cnc21 (stereo not drawn) [NPT 15444] |  |  |  |  |  | Yes |  | % Inhibition of Hemadsorption Foci ([1]; Conc. 10-100 μg/ml, listed as 15444): 44%; % Inhibition of Hemadsorption Foci ([1]; Conc. >100 μg/ml, listed as 15444): 54%
O=c1[nH]cnc2c1ncn2CCO [NPT 15425, 9-HYDROXYETHYL HYPOXANTHINE] | 0% | 11% | 0% | 0% | 100% |  |  | 
CC(CO)n1cnc2c(Cl)ncnc21 (stereo not drawn) [NPT 15423, 9-(1-HYDROXY-2-PROPANE)-6-CHLOROPURINE] |  |  |  |  |  |  |  | inhibition ([1]; Influenza A virus, Conc. 10-100 μg/ml, read-out: % Inhibition of Hemadsorption Foci): 13%
CC(=O)Nc1ccc(C(=O)O)cc1.CC(O)CN(C)C [compound 15110, dimethylamino-2-propanol-p-acetamido benzoate, reference compound] |  |  |  |  |  |  | 0% | % Inhibition of Hemadsorption Foci ([1]; Conc. <10 μg/ml): 0%; % Inhibition of Hemadsorption Foci ([1]; Conc. >100 μg/ml): 20%
OCCn1cnc2c(S)ncnc21 [NPT 15437] |  |  |  |  |  | Yes | 65% | % Inhibition of Hemadsorption Foci ([1]; Conc. >100 μg/ml, listed as 15437): 65%
